Each molecule was assayed against Recombinant human factor D (Homo sapiens (Human), UniProt P00746) (assay: biochemical). Settings: Factor D inhibition data using Method 1; substrate Z-Lys-thiobenzyl, fluorescence readout; read-out: IC50.
Chain of Recombinant human factor D (P00746 26-253): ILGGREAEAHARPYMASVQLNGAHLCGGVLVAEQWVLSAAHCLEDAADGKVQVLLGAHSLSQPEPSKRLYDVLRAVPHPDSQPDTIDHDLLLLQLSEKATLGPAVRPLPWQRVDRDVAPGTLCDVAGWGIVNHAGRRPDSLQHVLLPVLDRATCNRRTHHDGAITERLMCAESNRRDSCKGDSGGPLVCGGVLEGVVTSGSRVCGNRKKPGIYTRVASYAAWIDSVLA
Type: biochemical
Experimental: Human Complement Factor D Assay: Method 1
Recombinant human factor D (expressed in E. coli and purified using standard methods) at 10 nM concentration is incubated with test compound at various concentrations for 1 hour at room temperature in 0.1 M Hepes buffer, pH 7.5, containing 1 mM MgCl2, 1 M NaCl and 0.05% CHAPS. […] IC50 values are calculated from percentage of inhibition of complement factor D-activity as a function of test compound concentration.
`CC(=O)c1nn(CC(=O)N2[C@@H]3C[C@@H]3C[C@H]2C(=O)NC2CC(C)(C)C2)c2ccc(OCc3ncccn3)cc12` [Example 103, (1R,3S,5R)-2-{2-[3-Acetyl-5-(pyrimidin-2-ylmethoxy)-indazol-1-yl]-acetyl}-2-aza-bicyclo[3.1.0]hexane-3-carboxylic acid (3,3-dimethyl-cyclobutyl)-amide] was tested, and the IC50 was 36 nM.
Molecule `CC1(C)C[C@H](O)C[C@@H](NC(=O)[C@@H]2C[C@H]3C[C@H]3N2C(=O)Cn2nc(C(N)=O)c3ccccc32)C1` [Example 108, 1-{2-[(1R,3S,5R)-3-((1S,5S)-5-Hydroxy-3,3-dimethyl-cyclohexylcarbamoyl)-2-aza-bicyclo[3.1.0]hex-2-yl]-2-oxo-ethyl}-1H-indazole-3-carboxylic acid amide] has an IC50 of 2230 nM.
Molecule `CC1(C)C[C@@H](O)C[C@H](NC(=O)[C@@H]2C[C@H]3C[C@H]3N2C(=O)Cn2nc(C(N)=O)c3ccccc32)C1` [Example 109, 1-{2-[(1R,3S,5R)-3-((1R,5R)-5-Hydroxy-3,3-dimethyl-cyclohexylcarbamoyl)-2-aza-bicyclo[3.1.0]hex-2-yl]-2-oxo-ethyl}-1H-indazole-3-carboxylic acid amide] has an IC50 of 28 nM.
With `CC1(C)CCCC(NC(=O)[C@@H]2C[C@@]3(CO)C[C@H]3N2C(=O)Cn2nc(C(N)=O)c3ccccc32)C1` (stereo partly drawn) [Example 110, 1-{2-[(1R,3S,5S)-3-(3,3-Dimethyl-cyclohexylcarbamoyl)-5-hydroxymethyl-2-aza-bicyclo[3.1.0]hex-2-yl]-2-oxo-thyl}-1H-indazole-3-carboxylic acid amide] the IC50 was 48 nM.
`CC1(C)CCC[C@@H](NC(=O)[C@@H]2C[C@@]3(CO)C[C@H]3N2C(=O)Cn2nc(C(N)=O)c3ccccc32)C1` [Example 111, 1-{2-[(1R,3S,5S)-3-((R)-3,3-Dimethyl-cyclohexylcarbamoyl)-5-hydroxymethyl-2-aza-bicyclo[3.1.0]hex-2-yl]-2-oxo-ethyl}-1H-indazole-3-carboxylic acid amide] was tested, and the IC50 was 10 nM.
Work on `CC1(C)CCC[C@H](NC(=O)[C@@H]2C[C@@]3(CO)C[C@H]3N2C(=O)Cn2nc(C(N)=O)c3ccccc32)C1` [Example 112, 1-{2-[(1R,3S,5S)-3-((S)-3,3-Dimethyl-cyclohexylcarbamoyl)-5-hydroxymethyl-2-aza-bicyclo[3.1.0]hex-2-yl]-2-oxo-ethyl}-1H-indazole-3-carboxylic acid amide] yielded an IC50 of 370 nM.
`CC(=O)c1nn(CC(=O)N2[C@H](C(=O)N[C@@H]3CCCC(C)(C)C3)C[C@@]3(CO)C[C@@H]23)c2ncccc12` [Example 115, (1R,3S,5S)-2-[2-(3-Acetyl-pyrazolo[3,4-b]pyridin-1-yl)-acetyl]-5-hydroxymethyl-2-aza-bicyclo[3.1.0]hexane-3-carboxylic acid ((R)-3,3-dimethyl-cyclohexyl)-amide] showed an IC50 of 22 nM.
`CC(=O)c1nn(CC(=O)N2[C@H](C(=O)N[C@H]3CCCC(C)(C)C3)C[C@@]3(CO)C[C@@H]23)c2ncccc12` [Example 116, (1R,3S,5S)-2-[2-(3-Acetyl-pyrazolo[3,4-b]pyridin-1-yl)-acetyl]-5-hydroxymethyl-2-aza-bicyclo[3.1.0]hexane-3-carboxylic acid ((S)-3,3-dimethyl-cyclohexyl)-amide] gave an IC50 of 1600 nM.
For `CC1(O)CCCC(NC(=O)[C@@H]2C[C@H]3C[C@H]3N2C(=O)Cn2nc(C(N)=O)c3ccccc32)C1` (stereo partly drawn) [Example 123, 1-(2-((1R,3S,5R)-3-(3-hydroxy-3-methylcyclohexylcarbamoyl)-2-azabicyclo[3.1.0]hexan-2-yl)-2-oxoethyl)-1H-indazole-3-carboxamide], the IC50 was 920 nM.
`C[C@]1(CO)CCC[C@@H](NC(=O)[C@@H]2C[C@H]3C[C@H]3N2C(=O)Cn2nc(C(N)=O)c3ccccc32)C1` [Example 127, 1-(2-((1R,3S,5R)-3-(((1R,3S)-3-(hydroxymethyl)-3-methylcyclohexyl)carbamoyl)-2-azabicyclo[3.1.0]hexan-2-yl)-2-oxoethyl)-1H-indazole-3-carboxamide] was tested, and the IC50 was 80 nM.
`C[C@@]1(CO)CCC[C@H](NC(=O)[C@@H]2C[C@H]3C[C@H]3N2C(=O)Cn2nc(C(N)=O)c3ccccc32)C1` [Example 128, 1-(2-((1R,3S,5R)-3-(((1S,3R)-3-(hydroxymethyl)-3-methylcyclohexyl)carbamoyl)-2-azabicyclo[3.1.0]hexan-2-yl)-2-oxoethyl)-1H-indazole-3-carboxamide] showed an IC50 of 2210 nM.

Same assay, conditions: read-out: IC50
`CC(=O)c1nn(CC(=O)N2[C@@H]3C[C@@H]3C[C@H]2C(=O)NC2CC(F)(F)C2)c2ccc(OCc3ncccn3)cc12` [Example 104, (1R,3S,5R)-2-{2-[3-Acetyl-5-(pyrimidin-2-ylmethoxy)-indazol-1-yl]-acetyl}-2-aza-bicyclo[3.1.0]hexane-3-carboxylic acid (3,3-difluoro-cyclobutyl)-amide] gave an IC50 of 273 nM.
With `CO[C@@H]1C[C@@H](NC(=O)[C@@H]2C[C@H]3C[C@H]3N2C(=O)Cn2nc(C(N)=O)c3ccccc32)CC(C)(C)C1` [Example 105, 1-{2-[(1R,3S,5R)-3-((1S,5S)-5-Methoxy-3,3-dimethyl-cyclohexylcarbamoyl)-2-aza-bicyclo[3.1.0]hex-2-yl]-2-oxo-ethyl}-1H-indazole-3-carboxylic acid amide] the IC50 was 225 nM.
Molecule `CO[C@H]1C[C@H](NC(=O)[C@@H]2C[C@H]3C[C@H]3N2C(=O)Cn2nc(C(N)=O)c3ccccc32)CC(C)(C)C1` [Example 106, 1-{2-[(1R,3S,5R)-3-((1R,5R)-5-Methoxy-3,3-dimethyl-cyclohexylcarbamoyl)-2-aza-bicyclo[3.1.0]hex-2-yl]-2-oxo-ethyl}-1H-indazole-3-carboxylic acid amide] has an IC50 of 18 nM.
In the case of `COC1CC(NC(=O)[C@@H]2C[C@H]3C[C@H]3N2C(=O)Cn2nc(C(N)=O)c3ccccc32)CC(C)(C)C1` (stereo partly drawn) [Example 107, 1-{2-[(1R,3S,5R)-3-(cis-5-Methoxy-3,3-dimethyl-cyclohexylcarbamoyl)-2-aza-bicyclo[3.1.0]hex-2-yl]-2-oxo-ethyl}-1H-indazole-3-carboxylic acid amide], the IC50 is reported as 467 nM.
For `CC(=O)c1nn(CC(=O)N2[C@H](C(=O)N[C@@H]3CCCC(C)(C)C3)C[C@@]3(CO)C[C@@H]23)c2cnccc12` [Example 121, (1R,3S,5S)-2-[2-(3-Acetyl-pyrazolo[3,4-c]pyridin-1-yl)-acetyl]-5-hydroxymethyl-2-aza-bicyclo[3.1.0]hexane-3-carboxylic acid ((R)-3,3-dimethyl-cyclohexyl)-amide], the IC50 was 15 nM.
Work on `CC(=O)c1nn(CC(=O)N2[C@H](C(=O)N[C@H]3CCCC(C)(C)C3)C[C@@]3(CO)C[C@@H]23)c2cnccc12` [Example 122, (1R,3S,5S)-2-[2-(3-Acetyl-pyrazolo[3,4-c]pyridin-1-yl)-acetyl]-5-hydroxymethyl-2-aza-bicyclo[3.1.0]hexane-3-carboxylic acid ((S)-3,3-dimethyl-cyclohexyl)-amide] yielded an IC50 of 2200 nM.
Molecule `CC(=O)c1nn(CC(=O)N2[C@@H]3C[C@@H]3C[C@H]2C(=O)N[C@H]2C[C@H](O)CC(C)(C)C2)c2ccccc12` [Example 124, (1R,3S,5R)-2-(2-(3-acetyl-1H-indazol-1-yl)acetyl)-N-((1R,5R)-5-hydroxy-3,3-dimethylcyclohexyl)-2-azabicyclo[3.1.0]hexane-3-carboxamide] has an IC50 of 10 nM.
For `CC(=O)c1nn(CC(=O)N2[C@@H]3C[C@@H]3C[C@H]2C(=O)N[C@@H]2C[C@@H](O)CC(C)(C)C2)c2ccccc12` [Example 125, (1R,3S,5R)-2-(2-(3-acetyl-1H-indazol-1-yl)acetyl)-N-((1S,5S)-5-hydroxy-3,3-dimethylcyclohexyl)-2-azabicyclo[3.1.0]hexane-3-carboxamide], the IC50 was 1100 nM.
